Holding throughout (experiment): relative viability (nuclei count vs DMSO), 5 days (fraction); higher = more cells survive
Compound in the experiment “XMD14-99 + OSI-027”: CN1CCN(CC1)C2=CC(=C(C=C2)NC3=NC(=C(S3)C(=O)C4=C(C=CC=C4Cl)Cl)N)OC [XMD14-99] + COc1cccc2cc(-c3nc([C@H]4CC[C@H](C(=O)O)CC4)n4ncnc(N)c34)[nH]c12 [OSI-027] (partner 0.5 µM)
The method in brief: (§1)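 Lung cancer cell lines were seeded in 1536-well plates and dosed by pin tool the next day, with either a single drug or a fixed anchor-drug dose combined with five library-drug doses (not always all listed) spaced in √10 steps. Five days later, one step fixed the cells and stained their nuclei (final 0.05% Triton X-100, 1% formaldehyde, 1 ug/ml Hoechst), and nuclei were counted on 4× images. Relative viability is the nuclei count in treated wells divided by the count in vehicle wells, and each value is the median of duplicate plates.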

Compound in the experiment “AZD1208 + Luminespib”: N[C@@H]1CCCN(c2c(/C=C3\SC(=O)NC3=O)cccc2-c2ccccc2)C1 [AZD1208] + CCNC(=O)c1noc(-c2cc(C(C)C)c(O)cc2O)c1-c1ccc(CN2CCOCC2)cc1 [Luminespib] (partner 0.01 µM)
An outline of the steps:
as §1

Compound in the experiment “AZD1208 + AZD7762”: N[C@@H]1CCCN(c2c(/C=C3\SC(=O)NC3=O)cccc2-c2ccccc2)C1 [AZD1208] + NC(=O)Nc1cc(-c2cccc(F)c2)sc1C(=O)N[C@H]1CCCNC1 [AZD7762] (partner 0.2 µM)
An outline of the steps: as §1

Compound in the experiment “AZD1208 + Lapatinib”: N[C@@H]1CCCN(c2c(/C=C3\SC(=O)NC3=O)cccc2-c2ccccc2)C1 [AZD1208] + CS(=O)(=O)CCNCc1ccc(-c2ccc3ncnc(Nc4ccc(OCc5cccc(F)c5)c(Cl)c4)c3c2)o1 [Lapatinib] (partner 2 µM)
The method in brief: as §1

On to PC-14, for which the relative viability was found to be 0.809 with XMD14-99 + OSI-027 (first compound 0.08 µM); 0.806 with XMD14-99 + OSI-027 (first compound 0.8 µM); 0.644 with XMD14-99 + OSI-027 (first compound 2.53 µM); 0.29 with XMD14-99 + OSI-027 (first compound 8 µM); 0.142 with AZD1208 + Luminespib (first compound 0.08 µM); 0.151 in the experiment with AZD1208 + Luminespib (first compound 0.253 µM). Also, the relative viability was determined as 0.139 with AZD1208 + Luminespib (first compound 0.8 µM); 0.163 with AZD1208 + Luminespib (first compound 2.53 µM); 0.181 with AZD1208 + Luminespib (first compound 8 µM); 0.404 with AZD1208 + AZD7762 (first compound 0.08 µM); 0.429 with AZD1208 + AZD7762 (first compound 0.253 µM); 0.366 in the experiment with AZD1208 + AZD7762 (first compound 0.8 µM). Besides, the relative viability with AZD1208 + AZD7762 (first compound 2.53 µM) is 0.324; with AZD1208 + AZD7762 (first compound 8 µM), 0.414; with AZD1208 + Lapatinib (first compound 0.08 µM) it was 0.298; with AZD1208 + Lapatinib (first compound 0.253 µM), 0.417; with AZD1208 + Lapatinib (first compound 0.8 µM), 0.295; in the experiment with AZD1208 + Lapatinib (first compound 2.53 µM) it was 0.327. In addition, in the experiment with AZD1208 + Lapatinib (first compound 8 µM), the relative viability came to 0.317.

Consider RERF-LC-KJ, for which the relative viability in the experiment with XMD14-99 + OSI-027 (first compound 0.08 µM) was determined as 0.572; with XMD14-99 + OSI-027 (first compound 0.8 µM), 0.556; in the experiment with XMD14-99 + OSI-027 (first compound 2.53 µM) it was 0.527; with XMD14-99 + OSI-027 (first compound 8 µM) it was 0.366; with AZD1208 + Luminespib (first compound 0.08 µM), 1.13; with AZD1208 + Luminespib (first compound 0.253 µM) it was 1.22. The relative viability with AZD1208 + Luminespib (first compound 0.8 µM) was found to be 1.14; in the experiment with AZD1208 + Luminespib (first compound 2.53 µM), 1.07; with AZD1208 + Luminespib (first compound 8 µM), 0.838; with AZD1208 + AZD7762 (first compound 0.08 µM), 0.991; with AZD1208 + AZD7762 (first compound 0.253 µM) it was 1.08; with AZD1208 + AZD7762 (first compound 0.8 µM) it was 0.631. The relative viability was found to be 0.759 in the experiment with AZD1208 + AZD7762 (first compound 2.53 µM); 0.611 with AZD1208 + AZD7762 (first compound 8 µM); 0.819 with AZD1208 + Lapatinib (first compound 0.08 µM); 0.896 with AZD1208 + Lapatinib (first compound 0.253 µM); 0.698 with AZD1208 + Lapatinib (first compound 0.8 µM); 0.679 with AZD1208 + Lapatinib (first compound 2.53 µM). Further, in the experiment with AZD1208 + Lapatinib (first compound 8 µM), the relative viability came to 0.562.

Values taken from the supplement of paper PMC10307832.
